Laboratory results: a melting point compilation (Tetko et al.; mined from patent text by program, amines drawn as free bases though some values may be those of a salt)

Row | SMILES | melting point
1 | C#CCNC(=S)Cc1ccccn1 | 62 to 63 °C
2 | CCn1cc(-c2ccccc2)c(=O)c(-c2ccccc2)n1 | 124 to 125 °C
3 | N#Cc1c(Nc2c(F)cccc2F)cccc1-c1ccccc1 | 139 to 141 °C
4 | COC(=O)c1ccccc1NC(=O)Cl | 80 to 82 °C
5 | COc1ccc2c(c1)Oc1ccccc1C2 | 72 to 74 °C
6 | COc1cc2c(cc1F)C(c1ccccc1Cl)=NC1=C(C)NNC1=N2 | 217 to 218 °C
7 | CCc1cc(-c2cccnc2)nn1-c1ccc(NCc2ccc(OCCCC#N)cc2)cc1 | 131 to 132 °C
8 | COc1cc(C(=O)N(C(C)C)C2CCCCC2)ccc1Cn1c(CO)nc2cccnc21 | 124 to 126 °C
9 | CCOC(=O)COc1ccc(C[C@H](C)NS(=O)(=O)c2ccccc2)cc1 | 109 to 110 °C
10 | COc1ccc(CCN(C)C)c2[nH]c(C(F)(F)F)nc12 | 182 to 185 °C
11 | O=C1N(CCCOCc2ccccc2)c2ccccc2C12COc1cc3c(cc12)CCO3 (centres undefined) | 112 to 113 °C
12 | CC(c1oc2ccccc2c(=O)c1-c1cccc(F)c1)n1nc(-c2cc3ccccc3s2)c2c(N)ncnc21 (centres undefined) | 242 to 245 °C
13 | Cc1ccc(-c2ccc3c(c2)C=C(C(=O)Nc2ccc(CN4CCCCC4)cc2)CCS3)cc1 | 203 to 204 °C
14 | CN(C)c1ccc(/C=C/c2cccc(F)c2)cc1 | 147 to 148 °C
15 | Nc1nc2cc(-c3ccc(C=C4SC(=O)NC4=O)cn3)cc(C34CC5CC(CC(C5)C3)C4)c2o1 | > 360 °C
16 | COc1c(C)cc(NC(=O)C(C)(C)C)cc1C | 126 to 128 °C
17 | O=C1NCCc2c(-c3cccc(Oc4ccc(F)cc4)c3)[nH]c3cccc1c23 | 240 to 241 °C
18 | CC(C)c1ccc(C2c3ccc(O)cc3OC2(C)C)cc1 (centres undefined) | 114 to 115 °C
19 | O=C(O)C(=O)c1csc2ccccc12 | 92 to 93 °C
20 | COc1cc(N)c(Cl)cc1C(=O)N[C@H]1CCN(CCNC(=O)c2ccc(F)cc2)C[C@H]1OC (relative stereo) | 209 °C
21 | CCOC(=O)N1CCC(N)(CC#N)CC1 | 68 to 69 °C
22 | CCOC(=O)CCCCCCC1C(=O)NC(=O)N1C1(O)CCCCC1 (centres undefined) | 62 to 63 °C
23 | CCCCCCCCCCCCSc1ccc2nn(-c3cc(C(C)(C)C)cc(C(C)(C)C)c3O)nc2c1 | 62 to 64 °C

Row | SMILES | melting point
24 | CC(C)(C)c1cc(SC(Sc2cc(C(C)(C)C)c(O)c(C(C)(C)C)c2)Sc2cc(C(C)(C)C)c(O)c(C(C)(C)C)c2)cc(C(C)(C)C)c1O | 217 to 220 °C
25 | CCCc1c(OCCCCCOc2ccc3c(=O)cc(C(=O)OCC)oc3c2CCC)ccc(C(C)=O)c1O | 90 to 91 °C
26 | CN(C)c1n[nH]c(-c2ccc(F)cc2)c1-c1ccncc1 | 245 to 247 °C
27 | CC(=O)Nc1ccc(C(NC(c2ccccc2)c2ccccc2)P(O)O)cc1 (centres undefined) | 196 to 200 °C
28 | COC(=O)C1=C(C)NC(=O)N(C)C1c1cccc(N)c1 (centres undefined) | 205 to 209 °C
29 | CC(C)(C)c1ccc(C(=O)Nc2cn3cc(CO)ccc3n2)cc1 | 249 to 250 °C
30 | CCCCNc1c(C(=O)OCC)c(C)nc2nccnc12 | 56 to 58 °C
31 | Cc1cc(C)c2cccc(OCc3c(C)ccc(S(=O)(=O)N4CCC[C@H]4C(=O)NCCCNC(=O)c4ccc(C=NN)cc4)c3C)c2n1 | 150 °C
32 | CC(C)(C)C(O)Cn1ncn(-c2ccc(N3CCN(c4ccc(O[Si](C)(C)C(C)(C)C)cc4)CC3)cc2)c1=O (centres undefined) | 196 °C
33 | N#Cc1ccc(-c2ccc(S(=O)(=O)CC(CSc3ccccc3)C(=O)O)cc2)cc1 (centres undefined) | 243 to 247 °C
34 | O=C(O)COc1nn(-c2ccccc2)cc1-c1ccccc1 | 172 °C
35 | COc1ccccc1NC(=O)Nc1nc(Nc2ccc(CC(=O)O)cc2)nc(Oc2ccc3ccccc3c2)n1 | 232 to 240 °C
36 | O=C(CN1CCN(CCSc2nc3cccc(C(F)(F)F)c3o2)CC1)Nc1c(C(F)(F)F)cc(O)cc1C(F)(F)F | 176 to 177 °C
37 | CCc1ccc2c(c1)N(Cc1ccc(-c3ccccc3C#N)cc1)C(=O)CC2(C)C | 171 to 172 °C
38 | Cc1cc(C(C)(C)C)cc(C)c1Cl | 39 °C
39 | Cc1noc(C)c1S(=O)(=O)n1c(Br)nc(Br)c1Br | 165 to 170 °C
40 | Cc1cc(S(=O)(=O)C[N+](=O)[O-])c(C)cc1Cl | 113 to 114 °C
41 | CC1=C(C(=O)OCCCN(C)C)C(c2ccccc2)C2=C(COC2=O)N1 (centres undefined) | 112 to 115 °C
42 | COc1cccc(CC(=O)O)c1OCCCc1cc(OC(C)C)nn1Cc1ccc2ccccc2n1 | 129 to 130 °C
43 | CN(Cc1ccccc1)Cc1c(-c2ccc(N)cc2)sc2c1c(=O)c(C(=O)c1ccccc1)cn2Cc1c(F)cccc1F | 126 to 128 °C
44 | CCCCc1ncc(/C=C(/C(=O)O)C(CCCC)c2cccs2)n1Cc1ccccc1Cl (centres undefined) | 161 to 163 °C
45 | Cc1nc2cc(C#N)ccc2n1-c1ccc(C(=O)N(C)[C@@H]2CCNC2)cc1 | 178 to 180 °C

Continued, values first:

Row | melting point | SMILES
46 | > 250 °C | O=C(O)c1nc2c(=O)[nH]c3cc(C(F)(F)F)ccc3n2c1CP(=O)(O)O
47 | 165 to 168 °C | COc1c(O)ccc2oc(-c3ccc(O)cc3)cc12
48 | 180 to 181 °C | OC1CCCc2nc3sccc3c(NCc3ccccc3)c21 (centres undefined)
49 | 61 to 70 °C | CC(CCN(C)C1CCC(c2ccc3[nH]c(=O)oc3c2)CC1)c1ccccc1 (centres undefined)
50 | 146 to 148 °C | Cc1ccc(C2(O)c3c(C)c(NC(=O)CC(C)(C)C)c(C)c(C)c3OC2(C)C)cc1 (centres undefined)
51 | 74 to 77 °C | Cc1cccc(NC(=O)C2=C(O)c3ccccc3N(c3ccccc3)C2)n1
52 | 156 °C | COc1ccc(-n2nc(C(C)(C)C)cc2NC(=O)c2nccc3cc(Oc4cc(NC(C)=O)ncn4)ccc23)cc1
53 | 126 to 127 °C | CC(=O)OCCc1sc2nc(=NS(=O)(=O)c3ccc(C)cc3)sn2c1-c1ccc2c(c1)CCCC2
54 | 174 to 177 °C | CCCc1nc(C(C)(O)CC)c(C(=O)O)n1Cc1ccc(-c2ccccc2-c2nnn[nH]2)cc1 (centres undefined)
55 | 148 to 150 °C | Cc1ccc(O)c2c1CCC2=NO
56 | 237 to 239 °C | COCc1c(-c2ccc(O)cc2)oc2ccccc2c1=O
57 | 77.6 to 78.4 °C | CC(C)CN1CCN(C(=O)c2ccc(OCc3ccccc3)cc2)CC1
58 | 132 °C | C=CCN1C(=O)CN(c2ccc(Cc3ccccc3)cc2)C1=S
59 | 190 to 192 °C | CCN1CCCC(NC(=O)Cn2c(-c3ccc(Br)cc3)nc3cccnc32)C1 (centres undefined)
60 | 152 to 154 °C | N#Cc1c(N2CCCCC2)cc(-c2ccc(F)cc2)c2c1C(=O)c1ccccc1-2
61 | 199 to 200 °C | COc1ccc2[nH]c3c(c2c1)CCN1CN(C)CCC31 (centres undefined)
62 | 122 °C | CCCCCCCCS(=O)(=O)NCCC(=O)O
63 | 270 °C | C=CC(=O)Nc1ccc2c(Nc3cccc(C)c3)ncnc2c1
64 | 85 to 87 °C | CCCCNc1nc(C)c(C(=O)OCC)c2c1nnn2CC
65 | 137 to 138 °C | CC(C)Oc1cc(NC(=O)C2=C(C(=O)N(C)C)CCCC2)ccc1Br
66 | 51 to 53 °C | Cc1ccc2c(Br)csc2c1
67 | 317 to 323 °C | Sc1nc(-c2ccccc2)c(-c2cccnc2)[nH]1
68 | 137 °C | CN(CCO)Cc1ccc(-c2ccc(N3C[C@H](Cn4ccnn4)OC3=O)cc2F)cn1
69 | 104 to 106 °C | Cc1oncc1C(=O)c1ccccc1[N+](=O)[O-]
